In patent US20250163076A1, “SYNTHESIS OF BRUTON'S TYROSINE KINASE INHIBITORS” (JANSSEN PHARMACEUTICA NV, priority 2022, published 2025):
In brackets after ≈: the same amount, converted by molar mass. Where two headings read alike, the source gives them in different places. Marks after values point to notes of the source that are not given here. One block for each compound: values may come before it.

Assays:
[1] = Aqueous solubility at pH 2 and pH 7; type: physicochemical
BTK = BTK (Homo sapiens, UniProt Q06187); assay: BTK covalent inhibition kinetics (KI, kinact, kinact/KI); type: biochemical; settings: for Ki / kinact: average of 2 independent determinations (± SD)
Description: The development of the structure-activity relationship was conducted by characterizing the non-covalent affinity of each inhibitor for BTK (KI) and the first order rate constant for irreversible covalent bond formation (kinact). The second order rate constant kinact/KI ratio is used to assess the covalent inhibitor potency because it is independent of incubation time and substrate concentrations (Copeland, R. A. Evaluation of Enzyme Inhibitors in Drug Discovery: a Guide for Medicinal Chemists and Pharmacologists; 2nd ed.; Wiley: Hoboken, N.J., 2013).

[2] = Human liver microsomes T1/2; type: in vitro ADME; settings: for half-life: human, liver microsomes, Table 4
[3] = Solubility of P and M forms in solvent systems and their water mixtures; type: physicochemical
Text: Moreover, this solubility difference can be tuned by changing the ratio between 1-propanol/water. Therefore, M form can be efficiently converted even starting from a 1:1 d.r. mixture.

[4] = aqueous medium, aqueous buffer, Table 4, pH 7, read-out: Solubility pH 7
[5] = aqueous medium, simulated gastric fluid, Table 4, pH 2, read-out: Solubility pH 2

Chain of BTK (Q06187 whole entry): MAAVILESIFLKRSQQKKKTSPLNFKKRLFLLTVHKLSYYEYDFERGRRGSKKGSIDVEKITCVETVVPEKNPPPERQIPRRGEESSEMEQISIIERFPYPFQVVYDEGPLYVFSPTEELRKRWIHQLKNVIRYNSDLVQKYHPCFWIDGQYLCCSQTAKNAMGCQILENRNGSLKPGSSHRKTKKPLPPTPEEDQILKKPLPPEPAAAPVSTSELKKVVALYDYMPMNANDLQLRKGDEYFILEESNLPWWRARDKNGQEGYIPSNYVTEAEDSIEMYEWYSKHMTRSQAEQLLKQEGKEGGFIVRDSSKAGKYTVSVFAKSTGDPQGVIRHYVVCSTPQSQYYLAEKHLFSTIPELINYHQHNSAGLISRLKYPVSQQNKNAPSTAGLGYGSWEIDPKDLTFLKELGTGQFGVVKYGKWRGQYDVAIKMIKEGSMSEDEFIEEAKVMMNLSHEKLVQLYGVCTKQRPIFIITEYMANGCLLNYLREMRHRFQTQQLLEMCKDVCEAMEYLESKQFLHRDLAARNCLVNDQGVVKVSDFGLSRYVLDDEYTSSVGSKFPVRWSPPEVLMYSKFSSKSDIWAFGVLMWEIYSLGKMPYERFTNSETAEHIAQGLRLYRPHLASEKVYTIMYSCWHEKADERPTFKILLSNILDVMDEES

SMILES: C=CC(=O)NCCNC(=O)c1sc2nccc3c2c1NC(=O)N3c1cnc(CC(C)C)cc1C [L]
Solubility ([1]; Table 5, pH 7, read-out: Solubility pH 7): 220 µM (≈ 105 µg/mL)
Solubility ([1]; aqueous medium, simulated gastric fluid, Table 5, pH 2, read-out: Solubility pH 2): > 400 µM
Ki (BTK; Table 5): 2.43 µM
kinact (BTK; Table 5): 0.000317 s⁻¹
kinact/KI (BTK; Table 5, read-out: kinact/KI): 131 ± 2 M⁻¹ s⁻¹
Human liver microsomes T1/2 ([2]; Table 5): 27 min

SMILES: C=CC(=O)N[C@H]1CCC[C@H]1NC(=O)c1sc2nccc3c2c1NC(=O)N3c1cnc(CC(C)C)cc1C (single isomer, unassigned) [M form]
Solubility ([3]; 1-Butanol/water (~6/94 w/w %), 10° C.): 0.2 mg/mL (≈ 0.386 mM)
Solubility ([3]; 1-Butanol/water (~6/94 w/w %), 25° C.): 0.3 mg/mL (≈ 0.578 mM)
Solubility ([3]; 1-Butanol/water (~6/94 w/w %), 50° C.): immiscible
Solubility ([3]; 1-Butanol/water (~80/20 w/w %), 10° C.): 346.6 mg/mL (≈ 668 mM)
Solubility ([3]; 1-Butanol/water (~80/20 w/w %), 25° C.): 334.0 mg/mL (≈ 644 mM)
Solubility ([3]; 1-Butanol/water (~80/20 w/w %), 50° C.): immiscible
Solubility ([3]; 1-Butanol, 10° C.): 397.5* mg/mL
Solubility ([3]; 1-Butanol, 25° C.): 266.2 mg/mL (≈ 513 mM)
Solubility ([3]; 1-Butanol, 50° C.): 444.7 mg/mL (≈ 857 mM)
Solubility ([3]; 1-Propanol/water (20/80 w/w %), 10° C.): 4.2 mg/mL (≈ 8.1 mM)
Solubility ([3]; 1-Propanol/water (20/80 w/w %), 25° C.): 3.7 mg/mL (≈ 7.13 mM)
Solubility ([3]; 1-Propanol/water (20/80 w/w %), 50° C.): 4.9 mg/mL (≈ 9.45 mM)
Solubility ([3]; 1-Propanol/water (33/67 w/w %), 25° C.): 39.9 mg/mL (≈ 76.9 mM)
Solubility ([3]; 1-Propanol/water (33/67 w/w %), 50° C.): 285.9 mg/mL (≈ 551 mM)
Solubility ([3]; 1-Propanol/water (50/50 w/w %), 25° C.): 187.5 mg/mL (≈ 362 mM)
Solubility ([3]; 1-Propanol/water (50/50 w/w %), 50° C.): 276.3 mg/mL (≈ 533 mM)
Solubility ([3]; 1-Propanol/water (67/33 w/w %), 10° C.): 341.7 mg/mL (≈ 659 mM)
Solubility ([3]; 1-Propanol/water (67/33 w/w %), 25° C.): 336.5 mg/mL (≈ 649 mM)
Solubility ([3]; 1-Propanol/water (67/33 w/w %), 50° C.): 363.3 mg/mL (≈ 700 mM)
Solubility ([3]; 1-Propanol/water (80/20 w/w %), 10° C.): 394.0 mg/mL (≈ 760 mM)
Solubility ([3]; 1-Propanol/water (80/20 w/w %), 25° C.): 386.8 mg/mL (≈ 746 mM)
Solubility ([3]; 1-Propanol/water (80/20 w/w %), 50° C.): 394.5 mg/mL (≈ 761 mM)
Solubility ([3]; 1-Propanol, 10° C.): 500.4 mg/mL (≈ 965 mM)
Solubility ([3]; 1-Propanol, 25° C.): 265.4 mg/mL (≈ 512 mM)
Solubility ([3]; 2-butanol/water (~17/83 w/w %), 10° C.): 2.5 mg/mL (≈ 4.82 mM)
Solubility ([3]; 2-butanol/water (~17/83 w/w %), 25° C.): 1.7 mg/mL (≈ 3.28 mM)
Solubility ([3]; 2-butanol/water (~17/83 w/w %), 50° C.): 0.2 mg/mL (≈ 0.386 mM)
Solubility ([3]; Isobutanol/water (~8/92 w/w %), 10° C.): 0.2 mg/mL (≈ 0.386 mM)
Solubility ([3]; Isobutanol/water (~8/92 w/w %), 25° C.): 0.2 mg/mL (≈ 0.386 mM)
Solubility ([3]; Isobutanol/water (~8/92 w/w %), 50° C.): 0.1 mg/mL (≈ 0.193 mM)
Solubility ([3]; Isobutanol, 10° C.): 272.5* mg/mL
Solubility ([3]; Isobutanol, 25° C.): 238.0 mg/mL (≈ 459 mM)
Solubility ([3]; Isobutanol, 50° C.): 389.4 mg/mL (≈ 751 mM)
Solubility ([3]; Isopropanol/water (~16/84 w/w %), 10° C.): 0.6 mg/mL (≈ 1.16 mM)
Solubility ([3]; Isopropanol/water (~16/84 w/w %), 25° C.): 0.6 mg/mL (≈ 1.16 mM)
Solubility ([3]; Isopropanol/water (~16/84 w/w %), 50° C.): 4.0 mg/mL (≈ 7.71 mM)
Solubility ([3]; Isopropanol/water (~28/72 w/w %), 10° C.): 3.0 mg/mL (≈ 5.78 mM)
Solubility ([3]; Isopropanol/water (~28/72 w/w %), 25° C.): 4.6 mg/mL (≈ 8.87 mM)
Solubility ([3]; Isopropanol/water (~28/72 w/w %), 50° C.): 10.0 mg/mL (≈ 19.3 mM)
Solubility ([3]; Isopropanol/water (~44/56 w/w %), 10° C.): 31.0 mg/mL (≈ 59.8 mM)
Solubility ([3]; Isopropanol/water (~44/56 w/w %), 25° C.): 31.0 mg/mL (≈ 59.8 mM)
Solubility ([3]; Isopropanol/water (~44/56 w/w %), 50° C.): >200 mg/mL
Solubility ([3]; Isopropanol/water (~61/39 w/w %), 10° C.): 126.0 mg/mL (≈ 243 mM)
Solubility ([3]; Isopropanol/water (~61/39 w/w %), 25° C.): 109.0 mg/mL (≈ 210 mM)
Solubility ([3]; Isopropanol/water (~61/39 w/w %), 50° C.): >200 mg/mL
Solubility ([3]; Propylene carbonate/water (93/7 w/w %), 10° C.): 129.8 mg/mL (≈ 250 mM)
Solubility ([3]; Propylene carbonate/water (93/7 w/w %), 25° C.): 123.9 mg/mL (≈ 239 mM)
Solubility ([3]; Propylene carbonate/water (93/7 w/w %), 50° C.): 106.5 mg/mL (≈ 205 mM)
Solubility ([3]; Propylene carbonate, 10° C.): 163.1 mg/mL (≈ 314 mM)
Solubility ([3]; Propylene carbonate, 25° C.): 73.7 mg/mL (≈ 142 mM)
Solubility ([3]; Propylene carbonate, 50° C.): 107.0* mg/mL

Continued, values first:

Solubility [1, 4]: < 4 µM
Solubility [1, 5]: < 4 µM
Ki (BTK; Table 4): 0.032 ± 0.02 µM
kinact (BTK; Table 4): 0.00039 ± 0.00011 s⁻¹
kinact/KI (BTK; Table 4, read-out: kinact/KI): 13800 ± 5200 M⁻¹ s⁻¹
kinact/KI (BTK; text b354): 13800 M⁻¹ s⁻¹
half-life [2]: < 4 min
SMILES: C=CC(=O)N1CCCC(NC(=O)c2sc3nccc4c3c2NC(=O)N4c2ccc(Oc3ccccc3)cc2)C1 (stereo not shown) [Compound B]

Solubility [1, 4]: 9 µM (≈ 4.99 µg/mL)
Solubility [1, 5]: 16 µM (≈ 8.87 µg/mL)
Ki (BTK; Table 4): 0.0699 ± 0.0002 µM
kinact (BTK; Table 4): 0.000333 s⁻¹
kinact/KI (BTK; Table 4, read-out: kinact/KI): 4770 ± 7450 M⁻¹ s⁻¹
half-life [2]: 4 min
SMILES: C=CC(=O)N1CCCC(NC(=O)c2sc3nccc4c3c2NC(=O)N4c2ncc(Oc3ccccc3)cc2C)C1 (stereo not shown) [E]

Solubility ([1]; aqueous medium at pH 2, simulated gastric fluid, Table 4, pH 2, read-out: Solubility pH 2): 350 µM (≈ 182 µg/mL)
Solubility ([1]; aqueous medium at pH 7, aqueous buffer, Table 4, pH 7, read-out: Solubility pH 7): 23 µM (≈ 11.9 µg/mL)
Ki (BTK; Table 4): 0.145 ± 0.02 µM
kinact (BTK; Table 4): 0.000319 s⁻¹
kinact/KI (BTK; Table 4, read-out: kinact/KI): 2220 ± 272 M⁻¹ s⁻¹
half-life [2]: 6 min
SMILES: C=CC(=O)N1CCCC(NC(=O)c2sc3nccc4c3c2NC(=O)N4c2cnc(CC(C)C)cc2C)C1 (stereo not shown) [J]
